One test concerns the target WT KRAS (Homo sapiens, UniProt P01116). In words: KRAS WT Probe Displacement Assay (TR-FRET, GDP-loaded). Format: binding. The settings on record: KRAS WT, read-out: KRAS^WT Probe Displacement Assay IC50. An excerpt: (§1) The synthetic routes of probe 1 and 2, which have been disclosed in PCT/CN2022/070676, are hereby incorporated herein.
Background: In TR-FRET formats the signal depends on donor and acceptor labels being close together.

The next test deals with KRAS G12D (Homo sapiens, UniProt P01116, G12D). Briefly: KRAS G12D Probe Displacement Assay (TR-FRET, GDP-loaded). Format: binding. The settings on record: KRAS G12D, read-out: KRAS^G12D Probe Displacement Assay IC50.
Source text: as §1

pIC50: −log10 of the molar value.

Chain of KRAS G12D (P01116 1-188 isoform P01116-2 G12D): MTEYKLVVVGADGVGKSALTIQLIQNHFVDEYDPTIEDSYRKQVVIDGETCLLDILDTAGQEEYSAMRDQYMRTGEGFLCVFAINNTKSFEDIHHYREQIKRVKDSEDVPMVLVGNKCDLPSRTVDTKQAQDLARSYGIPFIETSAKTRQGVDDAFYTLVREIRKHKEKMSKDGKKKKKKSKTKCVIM
Chain of WT KRAS (P01116 1-188 isoform P01116-2): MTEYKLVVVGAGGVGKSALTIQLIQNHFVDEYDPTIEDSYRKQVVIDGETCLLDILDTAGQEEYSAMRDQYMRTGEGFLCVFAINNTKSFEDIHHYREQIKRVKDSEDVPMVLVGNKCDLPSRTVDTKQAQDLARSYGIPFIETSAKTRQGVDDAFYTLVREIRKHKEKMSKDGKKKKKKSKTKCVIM

As usually defined, the pIC50 is −log10 of the IC50, conventionally taken in molar units. Turning to `Cc1cc(N)cc(-c2nc3c4c(nc(OCC5(C6CCCN6C)CC5)nc4c2F)N2C[C@H]4CC[C@H](N4)[C@H]2CCO3)c1C(F)(F)F` (single isomer, unassigned) [Example 133], the negative-log IC50 (pIC50) at WT KRAS is 6.00 to 8.52; on KRAS G12D it was > 9.52.
Regarding `Cc1cc(N)cc(-c2nc3c4c(nc(OCC5(CN6CCOC[C@@H]6C)CC5)nc4c2F)N2C[C@H]4CC[C@H](N4)[C@H]2CCO3)c1C(F)(F)F` [Example 164, 3-((6aR,7S,10R)-1-fluoro-13-((1-(((S)-3-methylmorpholino)methyl)cyclopropyl)methoxy)-5,6,6a,7,8,9,10,11-octahydro-4-oxa-3,11a,12,14,15-pentaaza-7,10-methanocyclohepta[4,5]cycloocta[1,2,3-de]naphthalen-2-yl)-5-methyl-4-(trifluoromethyl)aniline], the pIC50 on WT KRAS was 6.00 to 8.52; at KRAS G12D, > 9.52.
On to `Cc1cc(N)cc(-c2nc3c4c(nc(OCC5(CN6CCC(C(F)(F)F)C6)CC5)nc4c2F)N2C[C@H]4CC[C@H](N4)[C@H]2CCO3)c1C(F)(F)F` (stereo partly drawn) [Example 91, 3-((6aR,7S,10R)-1-fluoro-13-((1-((3-(trifluoromethyl)pyrrolidin-1-yl)methyl)cyclopropyl)methoxy)-5,6,6a,7,8,9,10,11-octahydro-4-oxa-3,11a,12,14,15-pentaaza-7,10-methanocyclohepta [4,5]cycloocta [1,2,3-de]naphthalen-2-yl)-5-methyl-4-(trifluoromethyl)aniline], for which the results for the pIC50 on WT KRAS and on KRAS G12D were 6.00 to 8.52 and > 9.52, respectively.
Taken in the same sequence, the figures for `Cc1cc(N)cc(-c2nc3c4c(nc(OCC5(CN6CC7CC7C6)CC5(F)F)nc4c2F)N2C[C@H]4CC[C@H](N4)[C@H]2CCO3)c1C(F)(F)F` (single isomer, unassigned) [Example 28] were 6.00 to 8.52 and > 9.52.
Taken in the same sequence, the figures for `[2H]C([2H])([2H])N1CCC(C(F)F)C(C)(C([2H])([2H])Oc2nc3c4c(nc(-c5cc(N)cc(Cl)c5C(F)(F)F)c(F)c4n2)OCC[C@@H]2[C@@H]4CC[C@H](CN32)N4)C1` (single isomer, unassigned) [Example 246] were 6.00 to 8.52 and 8.52 to 9.52.
Taken in the same sequence, the figures for `Cc1nc(N)cc(-c2nc3c4c(nc(OC[C@]5(CN(C)C)CC5(F)F)nc4c2F)N2C[C@H]4CC[C@H](N4)[C@H]2CCO3)c1C(F)(F)F` [Example 48, 4-((6aR,7S,10R)-13-(((R)-1-((dimethylamino)methyl)-2,2-difluorocyclopropyl)methoxy)-1-fluoro-5,6,6a,7,8,9,10,11-octahydro-4-oxa-3,11a,12,14,15-pentaaza-7,10-methanocyclohepta[4,5]cycloocta [1,2,3-de]naphthalen-2-yl)-6-methyl-5-(trifluoromethyl)pyridin-2-amine] were 6.00 to 8.52 and > 9.52.
Take `Cc1cc(N)cc(-c2nc3c4c(nc(OCC5(CN6C[C@@H]7C[C@H]6CO7)CC5)nc4c2F)N2C[C@H]4CC[C@H](N4)[C@H]2CCO3)c1C(F)(F)F` [Example 68, 3-((6aR,7S,10R)-13-((1-(((1S,4S)-2-oxa-5-azabicyclo[2.2.1]heptan-5-yl)methyl)cyclopropyl)methoxy)-1-fluoro-5,6,6a,7,8,9,10,11-octahydro-4-oxa-3,11a,12,14,15-pentaaza-7,10-methanocyclohepta[4,5]cycloocta [1,2,3-de]naphthalen-2-yl)-5-methyl-4-(trifluoromethyl)aniline]: the pIC50 is 6.00 to 8.52 at WT KRAS and > 9.52 on KRAS G12D.
In the case of `COC[C@@H]1[C@@H]2C[C@@H]2CN1CC1(COc2nc3c4c(nc(-c5cc(N)cc(C)c5C(F)(F)F)c(F)c4n2)OCC[C@@H]2[C@@H]4CC[C@H](CN32)N4)CC1` [Example 180, 3-((6aR,7S,10R)-1-fluoro-13-((1-(((1R,2S,5S)-2-(methoxymethyl)-3-azabicyclo[3.1.0]hexan-3-yl)methyl)cyclopropyl)methoxy)-5,6,6a,7,8,9,10,11-octahydro-4-oxa-3,11a,12,14,15-pentaaza-7,10-methanocyclohepta[4,5]cycloocta[1,2,3-de]naphthalen-2-yl)-5-methyl-4-(trifluoromethyl)aniline], the figures for the pIC50 on WT KRAS and on KRAS G12D were 6.00 to 8.52 and 8.52 to 9.52, respectively.
In the case of `Cc1cc(N)cc(-c2nc3c4c(nc(OCC5(CN6CCC(C)(O)CC6)CC5)nc4c2F)N2C[C@H]4CC[C@H](N4)[C@H]2CCO3)c1C(F)(F)F` [Example 115, 1-((1-((((6aR,7S, 10R)-2-(5-amino-3-methyl-2-(trifluoromethyl)phenyl)-1-fluoro-5,6,6a,7,8,9,10,11-octahydro-4-oxa-3, 11a,12,14,15-pentaaza-7,10-methanocyclohepta [4,5]cycloocta[1,2,3-de]naphthalen-13-yl)oxy)methyl)cyclopropyl)methyl)-4-methylpiperidin-4-ol], the pIC50 on WT KRAS is 8.52 to 9.52; on KRAS G12D, > 9.52.
Turning to `Cc1cc(N)cc(-c2nc3c4c(nc(OCC5(CN6CC(F)(F)C6)CC5)nc4c2F)N2C[C@H]4CC[C@H](N4)[C@H]2CCO3)c1C(F)(F)F` [Example 82, 3-((6aR,7S,10R)-13-((1-((3,3-difluoroazetidin-1-yl)methyl)cyclopropyl)methoxy)-1-fluoro-5,6,6a,7,8,9,10,11-octahydro-4-oxa-3,11a,12,14,15-pentaaza-7,10-methanocyclohepta [4,5]cycloocta [1,2,3-de]naphthalen-2-yl)-5-methyl-4-(trifluoromethyl)aniline], the values for the pIC50 on WT KRAS and on KRAS G12D were 6.00 to 8.52 and 8.52 to 9.52, respectively.
With `Cc1cc(N)cc(-c2nc3c4c(nc(OC[C@@]56CCCN5CC(=C(F)F)C6)nc4c2F)N2C[C@H]4CC[C@H](N4)[C@H]2CCO3)c1C(F)(F)F` [Example 200, 3-((6aR,7S,10R)-13-(((S)-2-(difluoromethylene)tetrahydro-1H-pyrrolizin-7a(5H)-yl)methoxy)-1-fluoro-5,6,6a,7,8,9,10,11-octahydro-4-oxa-3,11a,12,14,15-pentaaza-7,10-methanocyclohepta[4,5]cycloocta[1,2,3-de]naphthalen-2-yl)-5-methyl-4-(trifluoromethyl)aniline], the pIC50 on WT KRAS was 6.00 to 8.52; on KRAS G12D it was > 9.52.
Taken in the same sequence, the figures for `[2H]C([2H])([2H])c1cc(N)cc(-c2nc3c4c(nc(OCC56C[C@@H](F)CN5C[C@H](F)C6)nc4c2F)N2C[C@H]4CC[C@H](N4)[C@H]2CCO3)c1C(F)(F)F` [Example 73, 3-((6aR,7S,10R)-13-(((2R,6R)-2,6-difluorotetrahydro-1H-pyrrolizin-7a(5H)-yl)methoxy)-1-fluoro-5,6,6a,7,8,9,10,11-octahydro-4-oxa-3,11a,12,14,15-pentaaza-7,10-methanocyclohepta[4,5]cycloocta [1,2,3-de]naphthalen-2-yl)-5-(methyl-d3)-4-(trifluoromethyl)aniline] were 6.00 to 8.52 and > 9.52.
Take `Cc1cc(N)cc(-c2nc3c4c(nc(O[C@@H](C)[C@@H]5CCCN5C5CCOCC5)nc4c2F)N2C[C@H]4CC[C@H](N4)[C@H]2CCO3)c1C(F)(F)F` [Example 226, 3-((6aR,7S,10R)-1-fluoro-13-((S)-1-((S)-1-(tetrahydro-2H-pyran-4-yl)pyrrolidin-2-yl)ethoxy)-5,6,6a,7,8,9,10,11-octahydro-4-oxa-3,11a,12,14,15-pentaaza-7,10-methanocyclohepta[4,5]cycloocta[1,2,3-de]naphthalen-2-yl)-5-methyl-4-(trifluoromethyl)aniline]: the pIC50 on WT KRAS was 6.00 to 8.52; on KRAS G12D it was > 9.52.

The values are drawn from patent publication US20260347373A1, “HETEROCYCLIC COMPOUNDS, COMPOSITIONS THEREOF, AND METHODS OF TREATMENT THEREWITH” (BeOne Medicines I GmbH, priority 2023, published 2026).
